{"source": "paper PMC5972182", "about": "“Comparison of a Rat Primary Cell-Based Blood-Brain Barrier Model With Epithelial and Brain Endothelial Cell Lines: Gene Expression and Drug Transport” (Frontiers in Molecular Neuroscience, 2018)", "key": {"[1]": {"assay": "Permeability across vinblastine-selected VB-Caco-2 cell layers", "details": "human"}, "[2]": {"assay": "Permeability across primary rat brain endothelial cell-based triple co-culture BBB model (EPA)"}, "in vitro [3]": {"assay": "in vitro", "details": "rat"}, "in vitro [4]": {"assay": "in vitro", "details": "human, Caco-2"}, "hCMEC/D3 cells": {"test_system": "hCMEC/D3 cells", "assay": "Transendothelial electrical resistance (TEER) of D3 cells after lithium treatment", "format": "cell-based, human", "details": "10 mM lithium chloride in medium; unpaired t-test, P < 0.0004", "procedure": "(§1) Cultures of human brain endothelial hCMEC/D3 cell line (≤passage number 35) were grown in MCDB 131 medium (Pan Biotech) supplemented with 5% FBS, GlutaMAX (100×, LifeTechnologies, Carlsbad, CA, USA), lipid supplement (100×, Life Technologies, Carlsbad, CA, USA), 10 μg/ml ascorbic acid, 550 nM hydrocortisone, 100 μg/ml heparin, 1 ng/ml basic fibroblast growth factor (bFGF, Roche, USA), 2.5 μg/ml insulin, 2.5 μg/ml transferrin, 2.5 ng/ml sodium selenite and 50 μg/ml gentamicin (Weksler et al., [2005]). For differentiation of this cell line (D3L group), the medium was supplemented with 10 mM lithium chloride (LiCl) at the first change of medium (Paolinelli et al., [2013]). For the three brain endothelial cell lines, we used culture media with very similar or identical composition to those that were originally described for their growth and maintenance.\nTransendothelial electrical resistance (TEER), reflecting the permeability of TJ for sodium ions, was measured by an EVOM voltohmmeter (World Precision Instruments, Sarasota, FL, USA) combined with STX-2 electrodes. Recorded resistance was expressed to the surface area of the filters (Ω × cm^2, Transwell inserts, […] membrane, 0.4 μm pore size, Corning Costar, USA). TEER of cell-free inserts (110 Ω × cm^2) was subtracted from the measured data."}, "[5]": {"assay": "Permeability across MDCK-MDR1 cell layers", "format": "in vitro ADME, canine", "details": "dog, fluorescein 10 μg/ml, mean ± SD"}, "[6]": {"assay": "Permeability across GP8 brain endothelial cell line", "format": "in vitro ADME", "details": "rat, fluorescein 10 μg/ml, mean ± SD", "procedure": "GP8 rat brain endothelial cell line (provided by Dr. John Greenwood, University College London, UK) was cultured in DMEM/ HAM’s F-12, 15% PDS, 100 μg/ml heparin, 1 ng/ml bFGF and 50 μg/ml gentamicin."}, "[7]": {"assay": "Permeability across Caco-2 epithelial cell layers", "format": "in vitro ADME", "details": "human, CaCo2, fluorescein 10 μg/ml, mean ± SD"}, "[8]": {"assay": "Permeability across hCMEC/D3 (D3) brain endothelial cell line", "format": "in vitro ADME", "details": "human, fluorescein 10 μg/ml, mean ± SD", "procedure": "as §1"}, "[9]": {"assay": "Permeability across lithium-treated hCMEC/D3 (D3L) cells", "format": "in vitro ADME", "details": "human, D3L (10 mM LiCl), fluorescein 10 μg/ml, mean ± SD", "procedure": "as §1"}, "[10]": {"assay": "Permeability across MDCK cell layers", "format": "in vitro ADME, canine", "details": "dog, fluorescein 10 μg/ml, mean ± SD"}, "[11]": {"assay": "Permeability across RBE4 brain endothelial cell line", "format": "in vitro ADME", "details": "rat, fluorescein 10 μg/ml, mean ± SD", "procedure": "RBE4 rat brain endothelial cell line (provided by Dr. Pierre-Olivier Couraud, Institut Cochin, Paris, France) was grown in DMEM/ HAM’s F-12, supplemented with 10% FBS, 1 ng/ml bFGF and 50 μg/ml gentamicin."}}}
{"smiles": "NCC(CC(=O)O)c1ccc(Cl)cc1", "note": "(centres unmarked) [Baclofen, baclofen]", "values": [{"measurement": "Papp A→B", "setting": "[1]", "value": 0.31, "unit": "×10⁻⁶ cm/s"}, {"measurement": "Papp A→B", "setting": "[2]; Wistar", "value": 16.3, "unit": "×10⁻⁶ cm/s"}]}
{"smiles": "Nc1c2c(nc3ccccc13)CCCC2", "note": "[tacrine]", "values": [{"measurement": "Papp at 30 min, 0.5 µM", "setting": "in vitro [3]; Wistar", "value": "102 ± 27", "unit": "×10⁻⁶ cm/s"}]}
{"smiles": "NCC1(CC(=O)O)CCCCC1", "note": "[Gabapentin, gabapentin]", "values": [{"measurement": "Papp A→B", "setting": "in vitro [4]", "value": "< 0.88", "unit": "×10⁻⁶ cm/s"}, {"measurement": "efflux ratio", "setting": "in vitro [4]", "value": "> 0.27"}, {"measurement": "Papp A→B", "setting": "in vitro [3]; Wistar", "value": 2.98, "unit": "×10⁻⁶ cm/s"}, {"measurement": "efflux ratio", "setting": "in vitro [3]", "value": 0.92}, {"measurement": "Papp A-B", "setting": "VB-Caco-2 cells", "value": "below the detection limit"}]}
{"smiles": "[Cl-].[Li+]", "note": "[lithium, lithium chloride]", "values": [{"measurement": "Effect on TEER of D3 cells", "setting": "hCMEC/D3 cells", "value": "significantly elevated"}]}
{"smiles": "O=C(O)c1ccccc1O", "note": "[Salicylic acid, salicylic acid]", "values": [{"measurement": "Papp A→B", "setting": "[1]", "value": 7.6, "unit": "×10⁻⁶ cm/s"}, {"measurement": "Papp A→B", "setting": "[2]; Wistar", "value": 4.78, "unit": "×10⁻⁶ cm/s"}]}
{"smiles": "CO[C@H]1[C@H](O)[C@@H](CO)OC(O)[C@@H]1O", "note": "(stereo partly drawn) [Glucopyranose, 3-O-methyl-D-glucopyranose]", "values": [{"measurement": "Papp A→B", "setting": "[1]", "value": 17.2, "unit": "×10⁻⁶ cm/s"}, {"measurement": "Papp A→B", "setting": "[2]; Wistar", "value": "< 65.7", "unit": "×10⁻⁶ cm/s"}]}
{"smiles": "CC(C)c1nc(N(C)S(C)(=O)=O)nc(-c2ccc(F)cc2)c1/C=C/[C@@H](O)C[C@@H](O)CC(=O)O", "note": "[Rosuvastatin, rosuvastatin]", "values": [{"measurement": "Papp A→B", "setting": "[1]", "value": 0.38, "unit": "×10⁻⁶ cm/s"}, {"measurement": "Papp A→B", "setting": "[2]; Wistar", "value": 11.3, "unit": "×10⁻⁶ cm/s"}]}
{"smiles": "O=C1OC2(c3ccc(O)cc3Oc3cc(O)ccc32)c2ccccc21", "note": "[Fluorescein, fluorescein]", "values": [{"measurement": "Papp at 30 min, 10 µg/ml", "setting": "[5]", "value": "2.7 ± 0.31", "unit": "×10⁻⁶ cm/s"}, {"measurement": "Papp at 30 min, 10 µg/ml", "setting": "[1]", "value": "0.3 ± 0.06", "unit": "×10⁻⁶ cm/s"}, {"measurement": "Papp at 30 min, 10 µg/ml", "setting": "[6]", "value": "39.8 ± 3.51", "unit": "×10⁻⁶ cm/s"}, {"measurement": "Papp at 30 min, 10 µg/ml", "setting": "[7]", "value": "1.5 ± 0.28", "unit": "×10⁻⁶ cm/s"}, {"measurement": "Papp at 30 min, 10 µg/ml", "setting": "[8]", "value": "22.2 ± 3.71", "unit": "×10⁻⁶ cm/s"}, {"measurement": "Papp at 30 min, 10 µg/ml", "setting": "[9]", "value": "19.3 ± 1.22", "unit": "×10⁻⁶ cm/s"}, {"measurement": "Papp at 30 min, 10 µg/ml", "setting": "[10]", "value": "2.8 ± 0.23", "unit": "×10⁻⁶ cm/s"}, {"measurement": "Papp at 30 min, 10 µg/ml", "setting": "[11]", "value": "27.4 ± 1.63", "unit": "×10⁻⁶ cm/s"}, {"measurement": "Papp at 30 min, 10 µg/ml", "setting": "[2]; Wistar", "value": "2.1 ± 0.25", "unit": "×10⁻⁶ cm/s"}]}
{"smiles": "CCCN(CCC)S(=O)(=O)c1ccc(C(=O)O)cc1", "note": "[Probenecid, probenecid]", "values": [{"measurement": "Papp A→B", "setting": "[1]", "value": 33.4, "unit": "×10⁻⁶ cm/s"}, {"measurement": "Papp A→B", "setting": "[2]; Wistar", "value": 19, "unit": "×10⁻⁶ cm/s"}]}
{"smiles": "CC[C@H](C)C(=O)O[C@H]1C[C@H](O)C=C2C=C[C@H](C)[C@H](CC[C@@H](O)C[C@@H](O)CC(=O)O)[C@H]21", "note": "[Pravastatin, pravastatin]", "values": [{"measurement": "Papp A→B", "setting": "[1]", "value": 0.19, "unit": "×10⁻⁶ cm/s"}, {"measurement": "Papp A→B", "setting": "[2]; Wistar", "value": 7.61, "unit": "×10⁻⁶ cm/s"}]}
{"smiles": "N[C@@H](Cc1ccc(O)c(O)c1)C(=O)O", "note": "[L-DOPA, 3,4-dihydroxy-L-phenylalanine]", "values": [{"measurement": "efflux ratio at 10 μM", "setting": "[2]", "value": 0.4}, {"measurement": "Papp A→B", "setting": "[2]; Wistar", "value": "73 ± 4", "unit": "×10⁻⁶ cm/s"}]}
{"smiles": "CCCC(CCC)C(=O)O", "note": "[Valproic acid, valproic acid]", "values": [{"measurement": "Papp A→B", "setting": "[1]", "value": 42.2, "unit": "×10⁻⁶ cm/s"}, {"measurement": "Papp A→B", "setting": "[2]; Wistar", "value": 39.4, "unit": "×10⁻⁶ cm/s"}]}
